According to publication PMC6934184, “Selective DNA-PKcs inhibition extends the therapeutic index of localized radiotherapy and chemotherapy” (The Journal of Clinical Investigation, 2019):

System: FLT3 ITD
Assay: SelectScreen LanthaScreen
Format: binding
Conditions: 1 µM
How it was run: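 Percent values come from Thermo SelectScreen profiling of NU5455, combining activity and binding assays. CSF1R was run in Z'LYTE format at Km app ATP, and CAMK1 in Adapta format with ATP listed at 10.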

In the case of `CN(C(=O)CN1CCOCC1)c1ccc2sc3c(-c4cccc5c(=O)cc(N6CC7CCC(C6)O7)oc45)cccc3c2c1` [NU5455], the “% displacement” value is reported as -11.6%.
